Reference: patent publication US20230114123A1, “METHOD OF STIMULATING ASYMMETRIC DIVISION OF SATELLITE STEM CELLS” (Ottawa Hospital Research Institute, priority 2017, published 2023)

Test system: mdx satellite cells
Experiment: Mitotic orientation by p-Aurk staining, mdx myofibers 36 h
Format: cell-based, mouse
Conditions: 36 h culture, recombinant EGF vs vehicle, FIG. 3B
Procedure: However, the rate of abnormal cell divisions in mdx satellite cells as evidenced by abnormal patterns of p-Aurk staining was unaffected by EGF stimulation. This observation implies that cell cycle dysregulation is not completely rescued by polarity signaling alone. […] Therefore, to assess whether EGF-driven asymmetric divisions could ameliorate the reduced generation of myogenic progenitors in mdx cultures, single EDL myofibers from mdx mice were cultured for 72 h and immunostained for the expression of Myog.
Characterization of Satellite Cell Divisions. The orientation of mitotic spindles in satellite cells was measured as described in Dumont et al. (2015). Single myofibers were fixed after 36 h of in vitro culture, as described above. Satellite cells were identified by Pax7 expression in the nucleus, as detected by immunofluorescene. Pax7 staining becomes cytoplasmic in mitotic satellite cells after the dissociation of the nuclear envelope, but is still discernable. […] Mitotic satellite cells with p-Aurk staining patterns that were not observed in WT cells, including monopolar, multipolar (>2), and abscission defects were quantified as abnormal. Mitotic orientations were manually counted according to the angle between the mitotic spindle and the tangential plane of the satellite cell's attachment point to the myofiber.

Substance: EGF: human recombinant EGF protein (Life Technologies), direct activator of the EGFR pathway
- numbers of apicobasal orientated mitotic centrosomes, mdx satellite cells: increased numbers of apicobasal orientated mitotic centrosomes
- rate of abnormal cell divisions (abnormal patterns of p-Aurk staining), mdx satellite cells: unaffected
